Tested on: 266 human PDZ domains (PDZome)
Test: Holdup assay (chromatographic retention, PDZome-binding profile, BI)
Set-up: key to maximal BI / Max BI / BI: binding intensity: 0.00 = no binding, 1.00 = maximal binding
Outline: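 Streptavidin resin was saturated with biotinylated 11-mer or 13-mer PTEN PBM peptides (42 μM loading solution), with biotin-only resin as the reference. Resins were incubated for 15 min with lysates containing MBP- or thioredoxin-tagged PDZ domains adjusted to 4 μM, in singlicate. Free PDZ in the filtrate was quantified by capillary electrophoresis, and depletion versus reference gave binding intensity (0–1).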

**Q.** For CC[C@H](C)[C@H](NC(=O)[C@H](CCC(N)=O)NC(=O)[C@@H](NC(=O)[C@H](Cc1c[nH]cn1)NC(=O)[C@H](CCC(N)=O)NC(=O)[C@H](CC(=O)O)NC(=O)[C@H](CCC(=O)O)NC(=O)[C@H](CC(=O)O)NC(=O)CCC(=O)NCCCOCCOCCOCCCNC(=O)CCCC[C@@H]1SC[C@@H]2NC(=O)N[C@@H]21)[C@@H](C)O)C(=O)N[C@H](C(=O)N[C@@H](CCCCNC(C)=O)C(=O)N[C@H](C(=O)O)C(C)C)[C@@H](C)O [PTEN_Ac], which “number of additional new PDZ partners not detected for PTEN_11” value (BI>0.20, compared with PTEN_11) is on record?
**A.** Its value is “at least 20”.

**Q.** What about the BI (PDZ domain MPDZ-2) of the same molecule?
**A.** Its BI is 0.353.

**Q.** What about the BI (PDZ domain MPDZ-3) of the same molecule?
**A.** The BI was 0.002.

**Q.** What about the BI (PDZ domain MPDZ-4) of the same molecule?
**A.** The BI was 0.029.

**Q.** And the BI (PDZ domain MPDZ-5)?
**A.** The BI was -0.014.

**Q.** And the BI (PDZ domain MPDZ-6)?
**A.** Its BI is -0.058.

**Q.** What about the BI (PDZ domain MPDZ-7) of the same molecule?
**A.** The BI was 0.624.

**Q.** And the BI (PDZ domain MPDZ-8)?
**A.** The BI was 0.172.

**Q.** What about the BI (PDZ domain MPDZ-9 (gene NHERF2, 2)) of the same molecule?
**A.** Its BI is 0.016.

**Q.** What about the BI (PDZ domain MPDZ-12) of the same molecule?
**A.** The BI was 0.019.

**Q.** What about the BI (PDZ domain MPDZ-13) of the same molecule?
**A.** The BI was 0.351.

**Q.** What about the BI (PDZ domain MPP1-1) of the same molecule?
**A.** Its BI is -0.054.

**Q.** What about the BI (PDZ domain MPP3-1) of the same molecule?
**A.** Its BI is -0.063.

**Q.** What about the BI (PDZ domain MPP4-1) of the same molecule?
**A.** Its BI is -0.043.

**Q.** What about the BI (PDZ domain MPP5-1) of the same molecule?
**A.** The BI was -0.048.

**Q.** What about the BI (PDZ domain MPP6-1) of the same molecule?
**A.** Its BI is -0.03.

**Q.** What about the BI (PDZ domain MPP7-1) of the same molecule?
**A.** The BI was -0.045.

**Q.** What about the BI (PDZ domain NHERF1-2) of the same molecule?
**A.** The BI was 0.046.

**Q.** And the BI (PDZ domain NHERF3-1)?
**A.** Its BI is 0.45.

**Q.** What about the BI (PDZ domain NHERF3-2) of the same molecule?
**A.** The BI was 0.105.

**Q.** What about the BI (PDZ domain NHERF3-3) of the same molecule?
**A.** Its BI is 0.021.

**Q.** What about the BI (PDZ domain NHERF3-4) of the same molecule?
**A.** The BI was -0.017.

**Q.** And the BI (PDZ domain NHERF4-1)?
**A.** The BI was -0.007.

**Q.** What about the BI (PDZ domain NHERF4-2) of the same molecule?
**A.** Its BI is 0.014.

**Q.** And the BI (PDZ domain NHERF4-3)?
**A.** Its BI is -0.031.

**Q.** What about the BI (PDZ domain NHERF4-4) of the same molecule?
**A.** Its BI is -0.03.

**Q.** And the BI (PDZ domain NOS1-1)?
**A.** The BI was 0.106.

**Q.** What about the BI (PDZ domain PARD3-1, first of two lines so named (r186)) of the same molecule?
**A.** The BI was 0.035.

**Q.** And the BI (PDZ domain PARD3-1, second of two lines so named (r187))?
**A.** Its BI is -0.073.

**Q.** What about the BI (PDZ domain PARD3-2) of the same molecule?
**A.** Its BI is 0.074.

**Q.** And the BI (PDZ domain PARD3B-1)?
**A.** The BI was -0.205.

**Q.** What about the BI (PDZ domain PARD3B-2) of the same molecule?
**A.** The BI was -0.04.

**Q.** What about the BI (PDZ domain PARD3B-3) of the same molecule?
**A.** Its BI is -0.007.

**Q.** What about the BI (PDZ domain PARD6A-1) of the same molecule?
**A.** Its BI is 0.007.

**Q.** And the BI (PDZ domain PARD6G-1)?
**A.** Its BI is -0.034.

**Q.** What about the BI (PDZ domain PCLO-1) of the same molecule?
**A.** Its BI is -0.088.

**Q.** And the BI (PDZ domain PDLIM1-1)?
**A.** Its BI is -0.087.

**Q.** And the BI (PDZ domain PDLIM3-1)?
**A.** The BI was -0.026.

**Q.** What about the BI (PDZ domain PDLIM4-1) of the same molecule?
**A.** Its BI is -0.03.

**Q.** What about the BI (PDZ domain PDLIM5-1) of the same molecule?
**A.** Its BI is -0.022.

**Q.** What about the BI (PDZ domain PDLIM7-1) of the same molecule?
**A.** The BI was -0.025.

**Q.** What about the BI (PDZ domain PDZD2-1) of the same molecule?
**A.** The BI was -0.095.

**Q.** And the BI (PDZ domain PDZD2-2)?
**A.** The BI was 0.195.

**Q.** What about the BI (PDZ domain PDZD2-3) of the same molecule?
**A.** Its BI is 0.017.

**Q.** And the BI (PDZ domain PDZD2-5)?
**A.** Its BI is -0.091.

**Q.** What about the BI (PDZ domain PDZD2-6) of the same molecule?
**A.** The BI was -0.026.

**Q.** And the BI (PDZ domain PDZD4-1)?
**A.** The BI was 0.085.

**Q.** And the BI (PDZ domain PDZD7-1)?
**A.** The BI was -0.051.

**Q.** And the BI (PDZ domain PDZD7-3)?
**A.** Its BI is 0.901.

**Q.** What about the BI (PDZ domain PDZD8-1) of the same molecule?
**A.** The BI was -0.202.

**Q.** And the BI (PDZ domain PDZD9-1)?
**A.** The BI was -0.019.

**Q.** And the BI (PDZ domain PDZD11-1)?
**A.** The BI was -0.017.

**Q.** What about the BI (PDZ domain PDZRN3-1) of the same molecule?
**A.** The BI was -0.019.

**Q.** What about the BI (PDZ domain PDZRN3-2) of the same molecule?
**A.** Its BI is 0.016.

**Q.** And the BI (PDZ domain PDZRN4-1)?
**A.** Its BI is -0.064.

**Q.** What about the BI (PDZ domain PDZRN4-2) of the same molecule?
**A.** Its BI is 0.099.

**Q.** What about the BI (PDZ domain PICK1-1) of the same molecule?
**A.** The BI was 0.052.

**Q.** And the BI (PDZ domain PPP1R9A-1)?
**A.** The BI was 0.066.

**Q.** And the BI (PDZ domain PPP1R9B-1)?
**A.** Its BI is -0.044.

**Q.** What about the BI (PDZ domain PREX1-1) of the same molecule?
**A.** The BI was -0.014.

**Q.** And the BI (PDZ domain PREX2-2)?
**A.** Its BI is 0.096.

**Q.** What about the BI (PDZ domain PRX-1) of the same molecule?
**A.** The BI was -0.021.

**Q.** What about the BI (PDZ domain PSCDBP-1) of the same molecule?
**A.** Its BI is -0.005.

**Q.** What about the BI (PDZ domain PSMD9-1) of the same molecule?
**A.** Its BI is -0.007.

**Q.** And the BI (PDZ domain PTPN3-1)?
**A.** Its BI is 0.05.

**Q.** What about the BI (PDZ domain PTPN4-1) of the same molecule?
**A.** Its BI is 0.02.

**Q.** And the BI (PDZ domain PTPN13-1)?
**A.** The BI was -0.024.

**Q.** What about the BI (PDZ domain PTPN13-3) of the same molecule?
**A.** Its BI is -0.028.

**Q.** What about the BI (PDZ domain PTPN13-5) of the same molecule?
**A.** Its BI is -0.046.

**Q.** And the BI (PDZ domain RADIL-1)?
**A.** The BI was 0.522.

**Q.** What about the BI (PDZ domain RAPGEF2-1) of the same molecule?
**A.** Its BI is -0.076.

**Q.** And the BI (PDZ domain RAPGEF6-1)?
**A.** The BI was 0.035.

**Q.** What about the BI (PDZ domain RGS3-1) of the same molecule?
**A.** The BI was -0.001.

**Q.** What about the BI (PDZ domain RGS12-1) of the same molecule?
**A.** Its BI is 0.033.

**Q.** And the BI (PDZ domain RHPN2-1)?
**A.** Its BI is -0.044.

**Q.** And the BI (PDZ domain RIMS1-1)?
**A.** The BI was -0.02.

**Q.** What about the BI (PDZ domain RIMS2-1) of the same molecule?
**A.** Its BI is -0.022.

**Q.** And the BI (PDZ domain SCRIB-2)?
**A.** The BI was 0.163.

**Q.** And the BI (PDZ domain SCRIB-4)?
**A.** The BI was 0.058.

**Q.** What about the BI (PDZ domain SDCBP2-2) of the same molecule?
**A.** The BI was -0.013.

**Q.** What about the BI (PDZ domain SDCBP-2) of the same molecule?
**A.** The BI was -0.05.

**Q.** What about the BI (PDZ domain SHANK1-1) of the same molecule?
**A.** The BI was 0.152.

**Q.** What about the BI (PDZ domain SHANK2-1) of the same molecule?
**A.** The BI was 0.209.

**Q.** And the BI (PDZ domain SHANK3-1)?
**A.** The BI was 0.235.

**Q.** And the BI (PDZ domain SHROOM2-1)?
**A.** The BI was -0.072.

**Q.** And the BI (PDZ domain SHROOM3-1)?
**A.** Its BI is -0.048.

**Q.** And the BI (PDZ domain SHROOM4-1)?
**A.** The BI was -0.073.

**Q.** What about the BI (PDZ domain SIPA1L2-1) of the same molecule?
**A.** The BI was -0.001.

**Q.** What about the BI (PDZ domain SIPA1L3-1) of the same molecule?
**A.** Its BI is -0.046.

**Q.** And the BI (PDZ domain SNTA1-1)?
**A.** The BI was 0.41.

**Q.** What about the BI (PDZ domain SNTB1-1) of the same molecule?
**A.** The BI was 0.548.

**Q.** What about the BI (PDZ domain SNTG1-1) of the same molecule?
**A.** The BI was 0.345.

**Q.** What about the BI (PDZ domain SNTG2-1) of the same molecule?
**A.** Its BI is -0.077.

**Q.** And the BI (PDZ domain STXB4-1)?
**A.** The BI was -0.072.

**Q.** What about the BI (PDZ domain SYNJ2BP-1) of the same molecule?
**A.** Its BI is 0.023.

**Q.** And the BI (PDZ domain SYNP2-1)?
**A.** The BI was 0.005.

**Q.** And the BI (PDZ domain SYNPO2L-1)?
**A.** Its BI is 0.063.

**Q.** And the BI (PDZ domain TIAM1-1)?
**A.** The BI was -0.072.

**Q.** And the BI (PDZ domain TIAM2-1)?
**A.** Its BI is -0.008.

**Q.** What about the BI (PDZ domain TJP1-1) of the same molecule?
**A.** The BI was 0.198.

**Q.** What about the “number of PDZ domains identified as potential binders (BI>0.20)” value (holdup, singlicate, threshold BI>0.20) of the same molecule?
**A.** Its value is 43 PDZ domains.

**Q.** What about the “maximal BI” value (holdup, singlicate, highest BI in the PDZome profile, BI standard error ~0.07) of the same molecule?
**A.** Its value is 0.90.

**Q.** What about the “binding of several PDZ domains (in words)” value (including several ones from MAGI and NHERF) of the same molecule?
**A.** Its value is “detectably bound”.

**Q.** And the “Max BI” value (maximum over PDZome)?
**A.** The value was 0.90.

**Q.** What about the “number of partners detected for PTEN_Ac and not for PTEN_KR” value (over a total of 43) of the same molecule?
**A.** The value was 15.

Reference: article PMC7774954, “Interactomic affinity profiling by holdup assay: Acetylation and distal residues impact the PDZome-binding specificity of PTEN phosphatase” (PLoS ONE, 2020)
